Results: patent publication US11731968B2, “Tricyclic protein kinase inhibitors for promoting liver regeneration or reducing or preventing hepatocyte death” (HEPAREGENIX GMBH, priority 2018, dated 2023)

Experiments:
MKK4 = target: T1, MKK4 (Homo sapiens, UniProt P45985); experiment: KINOMEscan competition binding assay, MKK4 potency; conditions: compound concentration 100 nM; lower numbers indicate stronger binding
T1 construct: S84/D399; host or cells: HEK-293
T1 sequence (P45985 84-399): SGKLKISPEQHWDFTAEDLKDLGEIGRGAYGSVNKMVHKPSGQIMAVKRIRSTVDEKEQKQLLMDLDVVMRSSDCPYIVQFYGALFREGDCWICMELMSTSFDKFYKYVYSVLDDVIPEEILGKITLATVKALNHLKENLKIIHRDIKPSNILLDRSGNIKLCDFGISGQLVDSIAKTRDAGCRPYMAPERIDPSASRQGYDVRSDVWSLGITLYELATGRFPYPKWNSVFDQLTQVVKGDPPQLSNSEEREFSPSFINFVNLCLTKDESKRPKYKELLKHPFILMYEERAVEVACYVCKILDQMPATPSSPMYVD
Description: (§1) The assay was performed by combining three components: DNA-tagged kinase; immobilized ligand; and a test compound. The ability of the test compound to compete with the immobilized ligand was measured via quantitative PCR of the DNA tag. The technology is described in detail in Fabian, M. A. et al., A small molecule-kinase interaction map for clinical kinase inhibitors. Nat.
(§2) For investigation of the affinity to MKK4, MKK7 and JNK1, the kinases were produced in HEK-293 cells and subsequently tagged with DNA for qPCR detection. […] The liganded beads were blocked with excess biotin and washed with blocking buffer (SEABLOCK™ (Pierce), 1% BSA, 0.05% TWEEN®20, 1 mM DTT) to remove unbound ligand and to reduce nonspecific binding. […] All reactions were performed in polystyrene 96-well plates in a final volume of 0.135 mL. […] The kinase concentration in the eluates was measured by qPCR.
(§3) The test compounds were provided as 10 mM stock solutions. The test solutions at indicated final concentrations were prepared at DiscoverX.

JNK1 = target: T2, JNK1 (Homo sapiens, UniProt P45983); experiment: KINOMEscan competition binding, selectivity against off-target JNK1 (PoC ratio JNK1/MKK4); conditions: compound concentration 100 nM
T2 construct: M1/Q384; host or cells: HEK-293
T2 sequence (P45983 1-384 isoform P45983-2): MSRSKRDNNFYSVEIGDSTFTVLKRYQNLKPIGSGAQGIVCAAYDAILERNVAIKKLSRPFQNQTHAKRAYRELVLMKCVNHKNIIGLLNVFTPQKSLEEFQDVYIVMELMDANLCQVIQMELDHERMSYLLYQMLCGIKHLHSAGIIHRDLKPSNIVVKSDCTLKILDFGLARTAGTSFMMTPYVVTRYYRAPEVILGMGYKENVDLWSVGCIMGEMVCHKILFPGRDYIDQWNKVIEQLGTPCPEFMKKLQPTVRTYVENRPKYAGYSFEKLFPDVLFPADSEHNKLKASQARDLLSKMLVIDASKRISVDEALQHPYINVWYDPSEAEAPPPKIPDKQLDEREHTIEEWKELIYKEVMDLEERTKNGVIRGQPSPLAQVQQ
Description: as §1, §2, §3

MKK7 = target: T3, MKK7 (Homo sapiens, UniProt O14733); experiment: KINOMEscan competition binding, selectivity against off-target MKK7 (PoC ratio MKK7/MKK4); conditions: compound concentration 100 nM
T3 construct: M1/R419; host or cells: HEK-293
T3 sequence (O14733 1-419): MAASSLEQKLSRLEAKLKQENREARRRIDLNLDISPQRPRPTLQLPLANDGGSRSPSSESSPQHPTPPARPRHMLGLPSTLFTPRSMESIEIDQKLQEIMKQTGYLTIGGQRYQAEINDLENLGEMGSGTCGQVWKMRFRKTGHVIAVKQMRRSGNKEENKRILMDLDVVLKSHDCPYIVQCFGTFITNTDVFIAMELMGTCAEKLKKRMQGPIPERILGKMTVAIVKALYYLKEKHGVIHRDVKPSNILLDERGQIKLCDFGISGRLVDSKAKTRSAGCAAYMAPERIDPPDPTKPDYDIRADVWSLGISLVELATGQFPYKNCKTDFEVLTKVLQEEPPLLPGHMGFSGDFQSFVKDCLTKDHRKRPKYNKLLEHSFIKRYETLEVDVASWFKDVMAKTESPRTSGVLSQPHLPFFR
Description: as §1, §2, §3

BRaf = BRaf (Homo sapiens, UniProt P15056); experiment: KINOMEscan competition binding, selectivity against off-target BRaf (PoC ratio BRaf/MKK4); conditions: compound concentration 100 nM
Sequence of BRaf (P15056 whole entry): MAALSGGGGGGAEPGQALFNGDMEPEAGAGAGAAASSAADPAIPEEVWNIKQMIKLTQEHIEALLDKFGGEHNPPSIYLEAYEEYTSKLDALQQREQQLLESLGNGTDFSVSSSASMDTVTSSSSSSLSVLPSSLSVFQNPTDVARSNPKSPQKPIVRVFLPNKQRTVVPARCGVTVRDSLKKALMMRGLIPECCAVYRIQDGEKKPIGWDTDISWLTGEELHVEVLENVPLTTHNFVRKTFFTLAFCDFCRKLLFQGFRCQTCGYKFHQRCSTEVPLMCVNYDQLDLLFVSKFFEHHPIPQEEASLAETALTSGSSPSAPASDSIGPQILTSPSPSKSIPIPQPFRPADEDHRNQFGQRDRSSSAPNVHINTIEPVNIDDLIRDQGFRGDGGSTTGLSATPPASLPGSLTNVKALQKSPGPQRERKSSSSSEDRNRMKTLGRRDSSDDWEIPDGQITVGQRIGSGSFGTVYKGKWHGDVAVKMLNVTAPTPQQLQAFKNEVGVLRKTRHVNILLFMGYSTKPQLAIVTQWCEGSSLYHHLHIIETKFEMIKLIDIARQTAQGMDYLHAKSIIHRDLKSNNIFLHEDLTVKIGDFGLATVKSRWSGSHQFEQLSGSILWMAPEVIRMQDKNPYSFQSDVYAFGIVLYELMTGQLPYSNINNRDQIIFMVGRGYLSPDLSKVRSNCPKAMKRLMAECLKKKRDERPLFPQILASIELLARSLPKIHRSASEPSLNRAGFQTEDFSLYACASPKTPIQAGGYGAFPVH
Description: as §1, §3

SMILES | MKK4 residual percent of control binding (PoC) (MKK4) | Selectivity vs. JNK1, ratio PoC(JNK1)/PoC(MKK4) (JNK1) | Selectivity vs. MKK7, ratio PoC(MKK7)/PoC(MKK4) (MKK7) | Selectivity vs. BRaf, ratio PoC(BRaf)/PoC(MKK4) (BRaf)
CCCS(=O)(=O)Nc1ccc(F)c(C(=O)c2ccc3[nH]c4ncc(-c5ccncc5)cc4c3c2)c1F [Example 4a] | + + + | +++ (PoC(JNK1)/PoC(MKK4) ≥ 30 = “+++”) | +++ (PoC(MKK7)/PoC(MKK4) ≥ 30 = “+++”) | +++ (PoC(BRaf)/PoC(MKK4) ≥ 30 = “+++”)
CCCS(=O)(=O)Nc1ccc(F)c(C(=O)c2ccc3[nH]c4ncc(-c5ccc(S(N)(=O)=O)cc5)cc4c3c2)c1F [Example 4b] | + + | +++ (PoC(JNK1)/PoC(MKK4) ≥ 30 = “+++”) | +++ (PoC(MKK7)/PoC(MKK4) ≥ 30 = “+++”) | +++ (PoC(BRaf)/PoC(MKK4) ≥ 30 = “+++”)
CCCS(=O)(=O)Nc1ccc(F)c(C(=O)c2ccc3[nH]c4ncc(-c5ccc(C(N)=O)cc5)cc4c3c2)c1F [Example 4e] | + + + | +++ (PoC(JNK1)/PoC(MKK4) ≥ 30 = “+++”) | +++ (PoC(MKK7)/PoC(MKK4) ≥ 30 = “+++”) | +++ (PoC(BRaf)/PoC(MKK4) ≥ 30 = “+++”)
CCCS(=O)(=O)Nc1ccc(F)c(C(=O)c2ccc3[nH]c4ncc(-c5ccc(-c6nnn[nH]6)cc5)cc4c3c2)c1F [Example 4f] | + + | +++ (PoC(JNK1)/PoC(MKK4) ≥ 30 = “+++”) | +++ (PoC(MKK7)/PoC(MKK4) ≥ 30 = “+++”) | +++ (PoC(BRaf)/PoC(MKK4) ≥ 30 = “+++”)
CS(=O)(=O)Nc1ccc(F)c(C(=O)c2ccc3[nH]c4ncc(-c5ccc(S(N)(=O)=O)cc5)cc4c3c2)c1F [Example 4j] | + + + | +++ (PoC(JNK1)/PoC(MKK4) ≥ 30 = “+++”) | +++ (PoC(MKK7)/PoC(MKK4) ≥ 30 = “+++”) | +++ (PoC(BRaf)/PoC(MKK4) ≥ 30 = “+++”)
CCS(=O)(=O)Nc1ccc(F)c(C(=O)c2ccc3[nH]c4ncc(-c5ccc(S(N)(=O)=O)cc5)cc4c3c2)c1F [Example 4k] | + + + | +++ (PoC(JNK1)/PoC(MKK4) ≥ 30 = “+++”) | +++ (PoC(MKK7)/PoC(MKK4) ≥ 30 = “+++”) | +++ (PoC(BRaf)/PoC(MKK4) ≥ 30 = “+++”)

Next, values leading:

MKK4 residual percent of control binding (PoC) (MKK4) | Selectivity vs. JNK1, ratio PoC(JNK1)/PoC(MKK4) (JNK1) | Selectivity vs. MKK7, ratio PoC(MKK7)/PoC(MKK4) (MKK7) | Selectivity vs. BRaf, ratio PoC(BRaf)/PoC(MKK4) (BRaf) | SMILES
+ + + | +++ (PoC(JNK1)/PoC(MKK4) ≥ 30 = “+++”) | +++ (PoC(MKK7)/PoC(MKK4) ≥ 30 = “+++”) | +++ (PoC(BRaf)/PoC(MKK4) ≥ 30 = “+++”) | CCCS(=O)(=O)Nc1ccc(F)c(C(=O)c2ccc3[nH]c4ncc(-c5ccc(OCC(O)CO)cc5)cc4c3c2)c1F (centres unmarked) [Example 4m]
+ + + | +++ (PoC(JNK1)/PoC(MKK4) ≥ 30 = “+++”) | +++ (PoC(MKK7)/PoC(MKK4) ≥ 30 = “+++”) | +++ (PoC(BRaf)/PoC(MKK4) ≥ 30 = “+++”) | CCCS(=O)(=O)Nc1ccc(F)c(C(=O)c2ccc3[nH]c4ncc(-c5ccc(C(=O)O)cc5)cc4c3c2)c1F [Example 4n]
+ + + | +++ (PoC(JNK1)/PoC(MKK4) ≥ 30 = “+++”) | +++ (PoC(MKK7)/PoC(MKK4) ≥ 30 = “+++”) | +++ (PoC(BRaf)/PoC(MKK4) ≥ 30 = “+++”) | CCCS(=O)(=O)Nc1ccc(F)c(C(=O)c2ccc3[nH]c4ncc(-c5ccc(N)nc5)cc4c3c2)c1F [Example 7, N-(3-(3-(6-aminopyridin-3-yl)-9H-pyrido[2,3-b]indole-6-carbonyl)-2,4-difluorophenyl)propane-1-sulfonamide]
+ (10 ≤ PoC < 30 = “+”) | +++ (PoC(JNK1)/PoC(MKK4) ≥ 30 = “+++”) | +++ (PoC(MKK7)/PoC(MKK4) ≥ 30 = “+++”) | +++ (PoC(BRaf)/PoC(MKK4) ≥ 30 = “+++”) | CCCS(=O)(=O)Nc1cccc(C(=O)c2ccc3[nH]c4ncc(Cl)cc4c3c2)c1F [Example 8, N-(3-(3-chloro-9H-pyrido[2,3-b]indole-6-carbonyl)-2-fluorophenyl)propane-1-sulfonamide]
+ + + | +++ (PoC(JNK1)/PoC(MKK4) ≥ 30 = “+++”) | +++ (PoC(MKK7)/PoC(MKK4) ≥ 30 = “+++”) | +++ (PoC(BRaf)/PoC(MKK4) ≥ 30 = “+++”) | CS(=O)(=O)Nc1c(F)ccc(C(=O)c2ccc3[nH]c4ncc(Cl)cc4c3c2)c1F [Example 9, N-(3-(3-chloro-9H-pyrido[2,3-b]indole-6-carbonyl)-2,6-difluorophenyl)methanesulfonamide]
